Source: patent publication US20040014721A1, “Method for using tethered bis(polyhydroxyphenyls) and O-alkyl derivatives thereof in treating inflammatory conditions of the central nervous system” (Oklahoma Medical Research Foundation, priority 2002, published 2004)
Where two headings read alike, the source gives them in different places. Marks after values point to notes of the source that are not given here.

Key:
human 5LOX = biological target: T1, human 5LOX (Homo sapiens, UniProt P09917); test: Microtiter plate binding of SOD1 to immobilized 5LOX; conditions: Scatchard analysis, estimate
T1 construct: purchased Cayman Chemical
T1 sequence (P09917 1-674): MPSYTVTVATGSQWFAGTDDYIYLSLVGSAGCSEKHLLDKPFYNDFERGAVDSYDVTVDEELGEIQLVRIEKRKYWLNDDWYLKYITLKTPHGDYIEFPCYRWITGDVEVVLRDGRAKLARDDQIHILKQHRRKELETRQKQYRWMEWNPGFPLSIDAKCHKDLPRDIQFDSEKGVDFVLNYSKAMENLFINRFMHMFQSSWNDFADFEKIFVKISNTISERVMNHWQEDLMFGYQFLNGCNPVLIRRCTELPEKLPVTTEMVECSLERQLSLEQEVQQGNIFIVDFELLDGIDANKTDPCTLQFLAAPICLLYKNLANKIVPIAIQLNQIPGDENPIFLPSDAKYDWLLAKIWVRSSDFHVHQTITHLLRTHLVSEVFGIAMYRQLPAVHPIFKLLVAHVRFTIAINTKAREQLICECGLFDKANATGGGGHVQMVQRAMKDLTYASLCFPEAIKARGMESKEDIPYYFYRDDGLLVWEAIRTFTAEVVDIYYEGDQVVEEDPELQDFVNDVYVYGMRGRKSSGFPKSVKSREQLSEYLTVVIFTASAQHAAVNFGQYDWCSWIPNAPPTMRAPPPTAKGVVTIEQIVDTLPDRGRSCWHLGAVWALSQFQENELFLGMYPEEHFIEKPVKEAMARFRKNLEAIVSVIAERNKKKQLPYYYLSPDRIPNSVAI
Description: In order to circumvent these limitations of the BIAcore technique, a conceptually different strategy was employed to assess SOD1 binding to immobilized 5LOX. Standard 96 well polypropylene microtiter plates were coated with 5LOX by overnight incubation with the protein, which allows adsorption of the 5LOX through mostly hydrophobic interactions with the plate surface. As a control, half of each microplate was coated with BSA. The entire plate was then blocked with BSA, and subsequently incubated for 1 H with various concentrations of SOD1 dissolved in physiologic saline. Binding of SOD1 to the 5LOX-coated (or BSA-coated) microplate wells was quantified using alkaline phosphatase-conjugated anti-SOD1 polyclonal IgG, and p-nitrophenol as the chromophore. FIG. 15 illustrates preliminary binding data obtained from this experiment. SOD1 bound strongly to 5LOX-coated microplates but not to BSA-coated surfaces. […] Experiments may also be conducted to assess differences in 5LOX binding to wild-type versus mutant SOD1.

[1] = test system: TNFα-Mediated Nitrite Production in EOC-20 Cells; test: Leukotrienes added to EOC-20 cells with or without low-dose TNFα, nitrite at 24 h; assay type: cell-based, mouse; conditions: for autonomous stimulation of NO2− production: without TNFα
Description: Because 5LOX inhibitors tended to antagonize TNFα, the converse experiment was performed of directly adding 5LOX metabolites to EOC-20 cells in the presence or absence of TNFα. LTB4 was added to microglia at 10 μM and TNFα was added at a low dose (4 ng/mL) 10 min later. Nitrite was assayed at 24 h. […] Similar examples exist in the literature of LTB4 synergizing with IFNγ to activate macrophages (Talvani et al., 2002).

[2] = test system: TNFα-Stimulated NO2^− Production in EOC-20 Cells; test: TNFα-stimulated nitrite (NO2−) production in EOC-20 microglial cells, Griess assay; assay type: cell-based, mouse; conditions: for IC50: read-out: IC50
Description: Cells were cultured in 24 well plates until confluent then treated with test agent, which was dissolved at 100× final concentration in dimethylsulfoxide (DMSO), or with vehicle only. Thirty minutes after treatment with test agent, cells were treated with 10 ng/mL recombinant mouse TNFα (Pharmingen, San Diego, Calif. USA). […] Each compound was tested at 100 μM, 20 μM, 4 μM, 0.8 μM and 0 μM in the presence of TNFα. Four wells of cells were used for each concentration of test agent.
(§1) Lower IC50 values indicate improved efficacy. FIG. 2 illustrates the principle of the measurement using NDGA as an example test agent. In order to determine viability, cell culture medium was replaced with phenol-free DMEM (Gibco) containing 20 μL/mL of MTT viability reagent (Promega). […] Control cells were taken to indicate 100% viability and intermediate values of MTT reduction were scaled to percentage of control. For each compound, an LD50 value was determined by extrapolation through sublethal concentrations. This value represents the concentration that reduced the MTT viability parameter by 50%.

LnCAP Production of PSA = test: LnCAP production of PSA (ELISA); assay type: cell-based; conditions: Homo sapiens, LNCaP, 24 h
Description: LnCAP prostate cancer cells were be cultured according to established methods (Horoszewicz et al., 1983). These cells product prostate-specific antigen (PSA), a serine protease that predicts metastatic potential ([…] et al., 2000). […] Each drug was tested in triplicate at each concentration. Medium was removed and tested for PSA concentration using a commercially available enzyme-linked immunosorbent assay (ELISA). Viability was determined in the adherent cells using the MTT assay.

EOC-20 cells = test system: EOC-20 cells
Description: as §1

G93A-SOD1 mice = conditions: administered chronically; Gurney et al., 1996; cited from earlier work
lipoxygenase = conditions: cited from earlier work
[3] = test system: C6 astrocyte culture exposed to lipopolysaccharide plus interferon gamma; conditions: LPS-stimulated C6 astrocyte model, Soliman et al., 1998; cited from earlier work
[4] = test system: pro-inflammatory cytokines in EOC-20 microglial cells; test: Multiprobe ribonuclease protection assay of cytokine transcription in TNFα-stimulated EOC-20 cells; assay type: cell-based, mouse
Source text: It was noted that IL1β, IL1RA, IFNγ and MIF were affected by the treatments, while IL18 was not.

C57/B6 mice = test: 3-nitropropionic acid (3NP) striatal damage model, rotarod and balance beam; assay type: in vivo; conditions: 2500 ppm in diet for one month, then 3NP 50 mg/kg i.p. every 12 h for 5 days
Description: Mice were then injected with 50 mg/kg 3NP intraperitoneally, every 12 h for 5 days. Motor performance was assessed daily by a rotarod task and balance was assessed by a balance wire task. In the rotarod task (Hensley et al. 2002), animals were placed on a bar rotating at 1 rpm and accelerating 10 rpm/minute until the animal fell from the bar. In the balance beam test, mice were placed on a 2-cm balance beam by suspending them by the tail, orienting them perpendicular to the beam, and placing the forepaws followed by hindpaws on the balance beam. Mice were left on the beam until they fell onto a soft cushion 75 cm below or until 5 min elapsed. The longest time of each pair of trials was used for statistical analysis.

human wild-type SOD1 = biological target: T2, human wild-type SOD1 (Homo sapiens, UniProt P00441); test: BIAcore binding of 5LOX to immobilized SOD1; conditions: preliminary Scatchard analysis, upper bound
T2 construct: purified to homogeneity from human erythrocytes; from tissue; host or cells: human erythrocytes
Source text: Using several techniques that allow the study of protein-protein binding interactions in vitro, the interaction of SOD1 with 5LOX may be investigated. One approach involves the use of BIAcore instrumentation (Amersham-Pharmacia, Upsala, Sweden). The BIA (biomolecular interaction analysis) system consists of a solid-phase support upon which a protein (the ligand) can be covalently immobilized. This surface is placed in contact with a microfluidic cartridge, which dispenses a second protein (the analyte) across the binding surface. Adherence of the analyte to the immobilized ligand is measured by surface plasmon resonance (SPR) spectrometry. The surface plasmon resonance detector responds to refractive index changes in the vicinity of the sensor surface as the immobilized species interacts with its binding partner in the fluid phase. Data output from the BIAcore instrument takes the form of “sensorgrams” (FIG. 14A). Sensorgrams can be interpreted qualitatively, to assess whether a nonspecific binding event occurs, or quantitatively, in order to measure binding affinity.
In a previous experiment, human wild-type SOD1 (purified to homogeneity from human erythrocytes) was covalently immobilized to the BIAcore chip via surface lysine residues, using standard carbodiimide coupling chemistry. […] Experiments to quantitate the binding affinity are conducted. […]

[5] = Mus musculus, 24 h, Table III, 10 ng/mL TNFα, 24 hr, by interpolation
[6] = Table III, MTT viability, by extrapolation through sublethal concentrations

T2 sequence (P00441 2-154 limits assumed): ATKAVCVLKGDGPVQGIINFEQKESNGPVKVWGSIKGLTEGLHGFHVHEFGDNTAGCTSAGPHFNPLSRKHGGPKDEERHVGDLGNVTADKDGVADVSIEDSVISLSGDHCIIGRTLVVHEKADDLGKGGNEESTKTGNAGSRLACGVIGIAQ

SOD1: Cu, Zn-superoxide dismutase, binding partner of 5LOX
Kd (human 5LOX): 1.4 µM

CCCCC/C=C\C\C=C/C=C/C=C/[C@@H]1O[C@H]1CCCC(=O)O [LTA4]
autonomous stimulation of NO2− production [1]: Neither LTA4 nor LTB4 stimulated NO2^− production autonomously

O=c1cc(-c2ccccc2)oc2cc(O)cc(O)c12 [Chrysin, 5,7-dihydroxy-flavone]
IC50 [2, 5]: 63 µM | IC50 (LnCAP Production of PSA): 91 µM | LD50 (EOC-20 cells; [6]): 85 μm

Nc1nc2ccc(OC(F)(F)F)cc2s1 [Riluzole]
extension in lifespan (G93A-SOD1 mice): 10 days

CCCCC/C=C\C[C@@H](O)/C=C/C=C/C=C\[C@@H](O)CCCC(=O)O [LTB4, Leukotriene B4]
effect on nitrite yield with low-dose TNFα ([1]; 10 μM, TNFα 4 ng/mL, 24 h): synergized with low-dose TNFα to produce a significantly greater nitrite yield | autonomous stimulation of NO2− production [1]: Neither LTA4 nor LTB4 stimulated NO2^− production autonomously

COc1ccc(C[C@@H](C)[C@@H](C)Cc2ccc(OC)c(OC)c2)cc1OC [tetra-o-methyl-NDGA]
lipoxygenase inhibition (lipoxygenase; literature): does not inhibit lipoxygenase | activity against TNFα-stimulated nitrite production [2]: modest bioactivity | IC50 ([2]; Table V): 20 µM | LD50 (EOC-20 cells): 125* μM

O=c1c(O)c(-c2ccc(O)cc2O)oc2cc(O)cc(O)c12 [morin]
IC50 [3]: 56 µM

O=C(/C=C/c1ccc(O)c(O)c1)OCCc1ccccc1 [caffeic acid phenethyl ester (CAPE), caffeic acid phenethyl ester]
lipoxygenase inhibition relative to NDGA (lipoxygenase; times more effective than NDGA, Mirzoeva and Calder, 1996): ~10 times | activity against TNFα-stimulated nitrite production [2]: approximately as effective as curcumin | IC50 [2, 5]: 12 µM | IC50 ([2]; Mus musculus, Table V): 12 µM | efficacy relative to NDGA as inhibitor of TNFα-stimulated microglial activation ([2]; fold less effective than NDGA): 4 fold

O=c1c(O)c(-c2ccc(O)c(O)c2)oc2cc(O)cc(O)c12 [Quercetin]
IC50 [2, 5]: 44 µM | IC50 (LnCAP Production of PSA; extrapolated): 131 µM | IC50 [3]: 0.062 µM | LD50 (EOC-20 cells): nontoxic

Oc1cc(O)cc(/C=C/c2ccc(O)c(O)c2)c1 [Piceatannol, 3,3′,4′,5 -tetrahydroxy stilbene]
transcription of pro-inflammatory cytokines [4]: differentially inhibited transcription of the pro-inflammatory cytokines | IC50 [2, 5]: 15 µM | IC50 (LnCAP Production of PSA): 42 µM | LD50 (EOC-20 cells; [6]): nontoxic

O=C(O[C@@H]1Cc2c(O)cc(O)cc2O[C@@H]1c1ccc(O)c(O)c1)c1cc(O)c(O)c(O)c1 [epicatechin gallate]
IC50 [3]: 10 µM

7-Bis (4-hydroxy-3-methoxyphenyl)-1,6-heptadiene-3,5-dione [Curcumin]
IC50 ([2]; Table III, 10 ng/mL TNFα, 24 hr, by interpolation): 7 µM | IC50 ([2]; Table V): 14 µM | balance test (C57/B6 mice): no effect | rotarod test (C57/B6 mice): possibly a detrimental effect | IC50 [3]: 72 µM

B1: 5LOX: Human recombinant 5LOX (Cayman Chemical) (protein, UniProt P09917 1-674, looked up)
Polyunsaturated fatty acid …: T1 sequence (P09917 1-674)
Kd (human wild-type SOD1): ≤ 20 µM
